Data reported in patent US20130131062A1, “PYRIDAZINONES AND FURAN-CONTAINING COMPOUNDS” (priority 2006, published 2013).
pIC50: −log10 of the molar value. Like-named read-outs stand apart in the source and are kept apart here.

What was measured:
[1] = test system: H1650; assay: Non Small Cell Lung Cancer Proliferation Assay (Alamar Blue); format: cell-based, human; conditions: for inhibition at 10 µM: NCI-H1650
Description: (§1) Non Small Cell Lung Cancer cell lines are grown and maintained in Corning 175 cm2 flasks in RPMI 1640 media supplemented with 10% FBS, 1% antibiotic solution, 1% additional glutamine and pyruvate. These cells have a doubling time of 1-2 days. All cell types are adherent and grow in colonies. The cells should be kept at a density between 50,000 cells/mL-500,000 cells/mL to provide for optimum growth and adequate nutrition. The cell line should be maintained at 37° C. in a humidified atmosphere with 5% CO2 in a sterile cell culture incubator.
(§2) To perform the assay, the Non Small Cell Lung Cancer lines are diluted in media and plated into 384 well microplates at a final density of 250 cells in 45 μL. To ensure consistency and minimal pipetting error, the cells are plated using the Multidrop 384 with the following settings: Rocker Switch set at 384, Volume 45 and Column 24.
(§3) Low Controls for this assay are made by treating Non Small Cell Lung Cancer cells with 5 ul of staurosporine at 250 uM in 10% DMSO and 1% SDS. [Final concentration in this assay is 25 uM staurosporine in 1% DMSO and 0.1% SDS.]
(§4) High Controls for this assay are made by treating Non Small Cell Lung Cancer cells with 5 ul of 10% DMSO. [Final concentration in this assay is 1% DMSO].
(§5) The remaining wells of the 384 microplate may be treated with different compounds depending on the study. Important Note: All compounds for testing in this assay should be done at the final concentration of 1% DMSO.
(§6) After addition, the cells are placed in cell culture incubator at 37° C. for 48 hours for complete treatment.
(§7) After drug treatment, cytotoxicity is measured by Alamar Blue reduction. 5 μL of Alamar Blue is added to the 384 microplates using the Flexdrop.
(§8) The cells are incubated for 48 hours at 37° C. to complete the Alamar Blue reduction.
(§9) The final step in the assay is to measure the amount of Alamar Blue reduction. […] The Alamar Blue fluorescence is measured at an excitation of 530 nm and emission of 590 nm.
(§10) For the NSCLC project, the cell based assay was screened against a small molecule library of approximately 200,000 compounds. The compound library is stored in our automated robotic freezer (Biophile) at −20° C. in 100% DMSO. Compound freeze and thaw cycles are kept to a minimum. Compounds for use are diluted into the appropriate concentration and plated into 384 well microplates using our custom built low volume 384-well head tool (TPS 384, Apricot Designs Inc., CA, USA). This assay was performed on a fully automated linear track robotic platform (CRS F3 Robot System, Thermo Electron Corp., Ontario, Canada) utilizing several integrated peripherals for plate handling, liquid dispensing, and readout detection. First, non-small cell lung cancer cell lines are dispensed into 384 well microplates (Corning #3712 Tissue Culture Treated Plate, Corning, N.Y., USA) with 5 μL of test compounds at 100 uM in 10% DMSO for screening studies or 1 mM in 10% DMSO to 50 nM in 10% DMSO for dose response studies. The microplates are then placed at 37° C. for 48 hours to complete treatment of cells with compounds. Next, 5 ul of alamar blue was added using a liquid dispenser (FlexDrop Precision Dispenser, Perkin Elmer, Mass., USA) and incubated for 48 hours at 37° C. The alamar blue prompt fluorescence was measured on Victor V (Victor^3 V, Perkin Elmer, Mass., USA) and output data files were loaded into ORIS (Oncology Research Informatics System, MSKCC, NY, USA), a screening data acquisition and analysis platform.

[2] = test system: H1975; assay: as above; format: cell-based, human; conditions: for inhibition at 10 µM: NCI-H1975
Description: as §1, §2, §3, §4, §5, §6, §7, §8, §9, §10

[3] = test system: H2030; assay: as above; format: cell-based, human; conditions: for inhibition at 10 µM: NCI-H2030
Description: (§11) These cells have a doubling time of 1-2 days. All cell types are adherent and grow in colonies. The cells should be kept at a density between 50,000 cells/mL-500,000 cells/mL to provide for optimum growth and adequate nutrition. The cell line should be maintained at 37° C. in a humidified atmosphere with 5% CO2 in a sterile cell culture incubator.
(§12) To perform the assay, the Non Small Cell Lung Cancer lines are diluted in media and plated into 384 well microplates at a final density of 250 cells in 45 μL.
as §4
(§13) Important Note: All compounds for testing in this assay should be done at the final concentration of 1% DMSO.
as §6
(§14) After drug treatment, cytotoxicity is measured by Alamar Blue reduction.
as §8, §9
as §10, with “Compounds for use are diluted into the appropriate concentration and plated into 384 well microplates using our custom built low volume 384-well head tool (TPS 384, Apricot Designs Inc., CA, USA).” left out, “First, non-small cell lung cancer cell lines are dispensed into 384 well microplates (Corning #3712 Tissue Culture Treated Plate, Corning, N.Y., USA) with 5 μL of test compounds at 100 uM in 10% DMSO for screening studies or 1 mM in 10% DMSO to 50 nM in 10% DMSO for dose response studies.” left out

[4] = test system: H3255; assay: as above; format: cell-based, human; conditions: for inhibition at 10 µM: NCI-H3255
Description: as §11, §12, §4, §13, §6, §14, §8, §9
as §10, with “Compounds for use are diluted into the appropriate concentration and plated into 384 well microplates using our custom built low volume 384-well head tool (TPS 384, Apricot Designs Inc., CA, USA).” left out, “First, non-small cell lung cancer cell lines are dispensed into 384 well microplates (Corning #3712 Tissue Culture Treated Plate, Corning, N.Y., USA) with 5 μL of test compounds at 100 uM in 10% DMSO for screening studies or 1 mM in 10% DMSO to 50 nM in 10% DMSO for dose response studies.” left out

[5] = in vitro; conditions: human
Description: (§15) NHBE (normal human bronchiolar epithelial cells) are primary cells obtained from donor lungs and commercially available from Cambrex. The HPLID (human peripheral lung epithelial) cell line has been immortalized with the SV40 large T-antigen. WI-38: human lung fibroblast cell line. HPLID, NHBE and WI-38 cells will serve as controls in the chemical screens. WT: wildtype; WT*: over-expressed wildtype.
Compounds were tested in dose response studies from 10 μM to 5 nM against several non small cell lung cancer lines: H358, H827, H1118, H1650, H1734, H1975, H2030, and H3255, and were also studied in a 72 hour cytotoxicity assay against the NHBE and WI-38 cell lines.

[6] = test system: 15 non small cell lung cancer lines representing various EGFR and KRAS mutations; assay: Dose response studies against 15 NSCLC lines (alamar blue); format: cell-based, human; conditions: Homo sapiens
Description: Dose response studies against 34 compounds from the pyridazinone and phenylfuran-carboxamide class were conducted. […] In addition, Tarceva was included in these dose response studies.
The dose response studies were done with the following standard procedure. First, the cells were counted and dispensed at 250 cells/well into 384-well microplates with compound. The cells were incubated for 48 hours at 37 C to complete treatment, and then alamar blue was added for an additional 48 hours. Finally, alamar blue reduction was measured and the data was loaded into ORIS, our data screening acquisition platform.

[7] = test system: H827; assay: Non Small Cell Lung Cancer Proliferation Assay (Alamar Blue), dose response; conditions: Homo sapiens, read-out: H827 Dose Response (uM)
Description: (§16) This assay was performed on a fully automated linear track robotic platform (CRS F3 Robot System, Thermo Electron Corp., Ontario, Canada) utilizing several integrated peripherals for plate handling, liquid dispensing, and readout detection. […] The microplates are then placed at 37° C. for 48 hours to complete treatment of cells with compounds. Next, 5 ul of alamar blue was added using a liquid dispenser (FlexDrop Precision Dispenser, Perkin Elmer, Mass., USA) and incubated for 48 hours at 37° C. The alamar blue prompt fluorescence was measured on Victor V (Victor^3 V, Perkin Elmer, Mass., USA) and output data files were loaded into ORIS (Oncology Research Informatics System, MSKCC, NY, USA), a screening data acquisition and analysis platform. […]

[8] = test system: H1118; assay: as above; conditions: Homo sapiens, read-out: H1118 Dose Response (uM)
Description: as §16

[9] = test system: H358; assay: as above; conditions: Homo sapiens, NCI-H358, read-out: H358 Dose Response (uM)
Description: as §16

[10] = test system: H1734; assay: as above; conditions: Homo sapiens, NCI-H1734, read-out: H1734 Dose Response (uM)
Description: as §16

[11] = test system: HPL1D; assay: Sensitivity of cell proliferation to erlotinib; format: cell-based; conditions: Homo sapiens, read-out: IC50 (Erlotinib) HPL1D; EGFR WT, KRAS WT
Excerpt: as §15

[12] = Homo sapiens, primary screening, 10 μM compound in 1% DMSO (v/v), read-out: percentage inhibition H1650
[13] = Homo sapiens, primary screening, 10 μM compound in 1% DMSO (v/v), read-out: percentage inhibition H1975
[14] = Homo sapiens, primary screening, 10 μM compound in 1% DMSO (v/v), read-out: percentage inhibition H2030
[15] = Homo sapiens, primary screening, 10 μM compound in 1% DMSO (v/v), read-out: percentage inhibition H3255
[16] = Homo sapiens, percentage inhibition, H1650, screening concentration of 10 μM compound in 1% DMSO (v/v), read-out: R1650 PRIMARY HTS [%]
[17] = Homo sapiens, percentage inhibition, H1975, screening concentration of 10 μM compound in 1% DMSO (v/v), read-out: R1975 PRIMARY HTS [%]
[18] = Homo sapiens, percentage inhibition, H2030, screening concentration of 10 μM compound in 1% DMSO (v/v), read-out: H2030 PRIMARY HTS [%]
[19] = Homo sapiens, percentage inhibition, H3255, screening concentration of 10 μM compound in 1% DMSO (v/v), read-out: H3255 PRIMARY HTS [%]
[20] = primary screening, 10 μM compound in 1% DMSO (v/v)
[21] = confirmation, percentage inhibition, 10 μM compound in 1% DMSO (v/v)

`N#Cc1ccccc1-n1nc(C(=O)c2cccs2)cc(-c2nc3ccccc3[nH]2)c1=N` [compound 186926] showed an inhibition at 10 µM [1, 12] of 27%, an inhibition at 10 µM [2, 13] of 81% and an inhibition at 10 µM [3, 14] of 2%. The inhibition at 10 µM [4, 15] was 52%.

Compound `Cc1cccc(-n2ncc(Cl)c(Cl)c2=O)c1` [compound 104122, 4,5-dichloro-2-m-tolyl-2H-pyridazin-3-one] has an IC50 at 72 h ([5]; NHBE CytoTox (uM)) of 3.4 µM, a pIC50 ([6]; read-out: IC50 H23) of 6.68 and a pIC50 ([6]; read-out: IC50 H1118) of 6.47. It also gave a pIC50 ([6]; read-out: IC50 HPL1D) of 6.55 and a pIC50 ([6]; read-out: IC50 PC9) of 6.19.

`CN/N=C1\C=NN(c2ccccc2)C(=O)C1Cl` (stereo not drawn) [compound 257024] showed a pIC50 ([1]; Homo sapiens, NCI-H1650, dose response 10 μM to 5 nM) of under 5.00, a pIC50 ([2]; Homo sapiens, NCI-H1975, dose response 10 μM to 5 nM) of under 5.00 and a pIC50 ([3]; Homo sapiens, NCI-H2030, dose response 10 μM to 5 nM) of under 5.00. It also gave a pIC50 ([4]; Homo sapiens, NCI-H3255, dose response 10 μM to 5 nM) of under 5.00, an IC50 at 72 h [5] of over 10 µM and an IC50 at 72 h ([5]; NHBE CytoTox (uM)) of over 10 µM. For the same compound, the IC50 [7] was over 10 µM, the IC50 [8] was over 10 µM and the IC50 [9] was over 10 µM. It also gave an IC50 [10] of over 10 µM.

With `O=C(Nc1ccc(NC(=O)c2ccco2)c(Cl)c1)c1ccccc1` [compound 76839] the inhibition at 10 µM [1, 16] was 20%, the inhibition at 10 µM [2, 17] was 3% and the inhibition at 10 µM [3, 18] was -6%. For the same compound, the inhibition at 10 µM [4, 19] was 2%.

In the case of `Cc1c(Oc2ccccc2)nnn1-c1cnn(-c2ccccc2)c(=O)c1Br` [compound 223337], the “percentage inhibition H1650” value [1, 20] was 13%, the “percentage inhibition H1975” value [2, 20] was 5% and the “percentage inhibition H2030” value [3, 20] was −14%. The “percentage inhibition H3255” value [4, 20] was 61%.

With `Cc1cccnc1NC(=O)c1ccc([N+](=O)[O-])o1` [compound 108321] the inhibition at 10 µM [1, 16] was 38%, the inhibition at 10 µM [2, 17] was -7% and the inhibition at 10 µM [3, 18] was 6%. It also gave an inhibition at 10 µM [4, 19] of 2%.

In the case of `C#Cc1cccc(Nc2ncnc3cc(OCCOC)c(OCCOC)cc23)c1` [Erlotinib, erlotinib], the pIC50 [11] was 5.00.

Work on `O=c1c2c(cnn1-c1ccccc1)SC(c1ccccc1)S2` (stereo not drawn) [compound 182826] yielded an inhibition at 10 µM [1, 12] of 13%, an inhibition at 10 µM [2, 13] of 12% and an inhibition at 10 µM [3, 14] of -11%. The inhibition at 10 µM [4, 15] was -13%.

For `O=C(Nc1ccc(Cl)cc1)c1ccc([N+](=O)[O-])o1` [compound 98698, 5-nitro-furan-2-carboxylic acid (4-chloro-phenyl)-amide], the “CONFIRMATION [%] 1975” value [2, 21] was 57%, the “CONFIRMATION [%] 2030” value [3, 21] was 98% and the pIC50 ([6]; read-out: IC50 H23) was 6.22. For the same compound, the pIC50 ([6]; read-out: IC50 H1118) was 6.28, the pIC50 ([6]; read-out: IC50 HPL1D) was under 5.00 and the pIC50 ([6]; read-out: IC50 PC9) was 5.80.
